Series [1] is described as follows: Mammalian cell toxicity, MTT, THP-1 cells. Type of series: cell-based. The settings on record: human, THP-1 cells transformed into adherent macrophages with PMA, 72 h, MTT; for CC50 at 72 h: read-out: Mammalian cells THP-1 CC50 ± SD. On the procedure:
(§1) Vero cells and THP-1 cells transformed into adherent macrophages with PMA in 96 microwell plates where they were treated with compounds (0-350 μM) during 72 h at 37 °C, 5% CO2-95% air mixture. The viability of the cells was evaluated by using the tetrazolium-dye (MTT) colorimetric method. After incubation of the cells with the MTT (5mg/mL) reagent for 4 hours, DMSO was added. The samples were read using an ELISA plate reader at a wavelength of 580 nm. The amount of color produced is directly proportional to the number of viable cells. The percentage of cytotoxicity was calculated by the equation: cytotoxicity (%) = (OD control group-OD treatment group)/OD control group × 100 [31]. […] The data were calculated by linear regression using the software ([…]; GO Business Solution, Guildford, UK). The selectivity index (SI) was calculated dividing CC50/IC50. Each experiment was repeated twice and the values represent the results of one representative experiment. […] The analysis to determine the statistical differences in biological activity was performed using the analysis of variance (ANOVA) and the Bonferroni post-test. We also performed Student's t test for comparison between the two variables, using GraphPad Prism software version 5.03.

In the next series the test system is THP-1 cells. In words: Mammalian cell toxicity, MTT, THP-1 cells. Type of series: cell-based. On the procedure: as §1
For series [2], the system named is L. (L.) infantum promastigotes. In words: In vitro activity on L. (L.) infantum promastigotes, counting viable parasites. The class given is cell-based, Leishmania (Leishmania) infantum. The settings on record: for IC50: Leishmania infantum, 72 h, 28 °C, read-out: L. (L) infantum promastigotes IC50 ± SD; for activity on L. (L.) infantum promastigotes, in words: free-living form; for L. (L) infantum promastigotes SI: selectivity index CC50/IC50. Here is the method:
(§2) Epimastigotes of T. cruzi and promastigotes forms of L. […] The inhibition of parasite growth was microscopically determined by counting viable (live) parasites in a haemocytometer using yellow eosin as vital dye; live parasites (uncolored) and dead (orange) were counted. All of the experiments were performed with parasites in their logarithmic phase of growth. […] Negative controls were used without the drug (culture medium alone) in each experiment. […] The data were calculated by linear regression using the software ([…]; GO Business Solution, Guildford, UK). The selectivity index (SI) was calculated dividing CC50/IC50. Each experiment was repeated twice and the values represent the results of one representative experiment. […] The analysis to determine the statistical differences in biological activity was performed using the analysis of variance (ANOVA) and the Bonferroni post-test. We also performed Student's t test for comparison between the two variables, using GraphPad Prism software version 5.03.

The nature of series [3]: Mammalian cell toxicity, MTT, Vero cells. The class given is cell-based. The settings on record: African green monkey, Vero cells, 72 h, MTT; for CC50 at 72 h: read-out: Mammalian cells Vero CC50 ± SD. Here is the method: as §1
The subject of the next series is T. cruzi epimastigotes. Briefly: In vitro activity on T. cruzi epimastigotes, counting viable parasites. Type of series: cell-based, Trypanosoma cruzi. The settings on record: for IC50: Trypanosoma cruzi, 72 h, 28 °C, read-out: T. cruzi epimastigotes IC50 ± SD; for activity on T. cruzi epimastigotes, in words: free-living form; for T. cruzi epimastigotes SI: selectivity index CC50/IC50. On the procedure:
as §2

The test system of series [4] is T. cruzi intracellular amastigotes. In words: Intracellular amastigotes of T. cruzi in Vero cells. Type of series: cell-based, Trypanosoma cruzi. On the procedure:
(§3) For the amastigotes assays, adherent Vero cells or THP-1 macrophages (after transformation with 10 ng/mL PMA) were infected with tissue-derived trypomastigotes or stationary phase promastigotes, respectively, at a ratio of 10:1 and maintained in a 5% CO2-95% air mixture at 37 °C. After 24 h, infected cultures with >50% of infected cells were incubated with the compounds (from 3–300 μM) in a three-fold dilution series for 72 h. Drug activity was determined from the % of infected cells in treated and untreated cultures in fixed methanol and Giemsa stained preparations. Parasites’ assays were performed twice and each tested concentration was tested in triplicate.
(§4) Negative controls were used without the drug (culture medium alone) in each experiment.
(§5) The data were calculated by linear regression using the software (Msxlfit; GO Business Solution, Guildford, UK). The selectivity index (SI) was calculated dividing CC50/IC50. Each experiment was repeated twice and the values represent the results of one representative experiment. […] The analysis to determine the statistical differences in biological activity was performed using the analysis of variance (ANOVA) and the Bonferroni post-test. We also performed Student’s t test for comparison between the two variables, using GraphPad Prism software version 5.03. P values <0.05 were considered to be statistically significant.

Series [5] concerns L. (L.) infantum intracellular amastigotes. Briefly: Intracellular amastigotes of L. (L.) infantum infecting THP-1 macrophages. The class given is cell-based, Leishmania (Leishmania) infantum. Here is the method: as §3, §4, §5
Series [6] has as its system L.(V.) panamensis intracellular amastigotes. In words: Intracellular amastigotes of L. (V.) panamensis in THP-1 macrophages. Type of series: cell-based, Leishmania (Viannia) panamensis. Here is the method:
as §3, §4, §5

Series [7] deals with L. (L.) amazonensis intracellular amastigotes. In words: Intracellular amastigotes of L. (L.) amazonensis in THP-1 macrophages. The class given is cell-based, Leishmania (Leishmania) amazonensis. On the procedure: as §3, §4, §5
In the next series the test system is Vero cells. Briefly: Mammalian cell toxicity, MTT, Vero cells. The class given is cell-based. On the procedure: as §1

Several values for one entry are separate records, joined by “and”; a condition that tells them apart may be missing. Equal values may be shown once.

Regarding `O=C(CCl)N(CCCCN(Cc1ccccc1)C(=O)CCl)Cc1ccccc1` [compound 8], in [1], the CC90 at 72 h was above 208 µM and the CC50 at 72 h stood at 25.1 ± 0.35 µM. The “toxicity on THP-1 cells, in words” value in the series with THP-1 cells is given as “partially toxic”. Also, in series [2], the concentration for half-maximal inhibition (IC50) stood at 3.91 ± 0.01 µM; the “activity on L. (L.) infantum promastigotes, in words” value was “active”; the “L. (L) infantum promastigotes SI” value was 6.4. Besides, in series [3], the 50% cytotoxic concentration (CC50) at 72 h is above 250 µM. Also, in the series with T. cruzi epimastigotes, the IC50 was determined as 0.02 ± 0.004 µM and the “activity on T. cruzi epimastigotes, in words” value is “active”.

Regarding `c1ccc(CNCCNCc2ccccc2)cc1` [5a, N^1,N^2-dibenzylethane-1,2-diamine], the CC50 at 72 h in [1] is 239 ± 17.9 µM; in series [3] it was 75.3 ± 2.57 µM. Further, the concentration for an effect of 90% (IC90) in [4] (Trypanosoma cruzi, Vero cells, 72 h) is above 123 µM; in series [5] (Leishmania infantum, THP-1 macrophages, 72 h), 59.5 ± 2.78 µM; in series [6] (THP-1 macrophages, 72 h), 88.1 ± 1.85 µM; in series [7] (Leishmania amazonensis, THP-1 macrophages, 72 h) it was 131 ± 9.14 µM. Besides, the IC50 worked out at 131.2 ± 0.92 µM in series [4] (Trypanosoma cruzi, Vero cells, 72 h, 98.1% cells infected before treatment); 12.2 ± 2.45 µM in series [2]; 25.4 ± 0.33 µM in [5] (Leishmania infantum, THP-1 macrophages, 72 h, 48.58% cells infected before treatment); 2.54 ± 0.08 µM with T. cruzi epimastigotes; 58.2 ± 3.23 µM in [6] (THP-1 macrophages, 72 h, 78.3% cells infected before treatment); 49.3 ± 4.7 µM in [7] (Leishmania amazonensis, THP-1 macrophages, 72 h, 58.6% cells infected before treatment). For the same compound, the “T. cruzi intracellular amastigotes SI” value in series [4] (selectivity index CC50/IC50) was 0.48. Further, in series [2], the “activity on L. (L.) infantum promastigotes, in words” value is given as “active”. In addition, the “L. (L) infantum promastigotes SI” value in [2] is listed as 19.58. For the same compound, the “L. (L.) infantum intracellular amastigotes SI” value in series [5] (selectivity index CC50/IC50) was 9.39 and 9. The “activity on T. cruzi epimastigotes, in words” value in the series with T. cruzi epimastigotes is “active”. For the same compound, the “activity on intracellular amastigotes of L. panamensis, in words” value in series [6] was “partially active (partially active with IC50 >25 μM and IC90 <100 μM)”. In series [6] (selectivity index CC50/IC50), the “L.(V.) panamensis intracellular amastigotes SI” value worked out at 5. In [7] (selectivity index CC50/IC50), the “L. (L.) amazonensis intracellular amastigotes SI” value came to 6.

`O=C(CCl)NCCNC(=O)CCl` [7a]: in series [1], the half-maximal cytotoxic concentration (CC50) at 72 h is above 300 µM. In addition, in series [2], the 50% inhibitory concentration (IC50) is 176 ± 19 µM and the “L. (L) infantum promastigotes SI” value was above 2.66. Besides, the “toxicity on Vero cells, in words” value in the series on Vero cells is on record as “toxic”. Besides, in [3], the CC90 at 72 h was 49.5 ± 1.87 µM and the half-maximal cytotoxic concentration (CC50) at 72 h was found to be 25.7 ± 1.22 µM. Also, in the series with T. cruzi epimastigotes, the concentration for half-maximal inhibition (IC50) came to 65.9 ± 5.54 µM and the “T. cruzi epimastigotes SI” value was determined as 0.38.

With `O=C(CCl)NCCCCNC(=O)CCl` [7c], the CC50 at 72 h in series [1] came to 366 µM. For the same compound, in [2], the half-inhibitory concentration (IC50) was 132 ± 7.63 µM and the “L. (L) infantum promastigotes SI” value is listed as 2.76. For the same compound, the “toxicity on Vero cells, in words” value in the series with Vero cells is listed as “toxic”. In [3], the CC90 at 72 h amounted to 77.6 ± 3.15 µM and the half-maximal cytotoxic concentration (CC50) at 72 h is 37.1 ± 0.45 µM. In the series on T. cruzi epimastigotes, the concentration for half-maximal inhibition (IC50) came to 54.2 ± 1.16 µM and the “T. cruzi epimastigotes SI” value worked out at 0.68.

As a reminder, the CC50 is the concentration giving 50% cytotoxicity. What is called IC50 is the concentration at which inhibition is half-maximal. As a reminder, the IC90 is the concentration needed for an effect of 90%. Higher therefore signals weaker potency.

For the origin of these results see paper PMC3617668, “In Vitro Antileishmanial, Trypanocidal, and Mammalian Cell Activities of Diverse N,N′ -Dihetaryl Substituted Diamines and Related Compounds” (Scientia Pharmaceutica, 2012).
